Literature values in US11149028B2, “Methods for treating melanoma using small molecules” (NOVA SOUTHEASTERN UNIVERSITY, priority 2016, dated 2021).

Tested on: PC-3 cells
Conditions: read-out: IC50, apoptotic cell death of PC-3 cells; cited from earlier work

For `O=c1c(O)c(-c2ccc(O)c(O)c2)oc2cc(O)cc(O)c12` [quercetin], the IC50 is listed as 100 µM.
